Results from patent publication US20170189547A1, “Biodegradable Drug Delivery Composition” (Durect Corporation, priority 2010, published 2017).

Target: T1, hGH (Homo sapiens, UniProt P01241)
T1 construct: purchased Hospira, Adelaide
Assay: Complexation capability of hGH with anionic and cationic agents (non-complexed hGH in supernatant by RPLC)
Assay type: physicochemical
Settings: for Observation: hGH with complexing agent; for Supernatant Analysis (% of hGH): non-complexed hGH by RPLC
Experimental: Additional complexation agents were tested in vitro for their ability to precipitate rhGH.
Human growth hormone (purchased from Hospira, Adelaide) was complexed with poly lysine, poly arginine, poly adenylic acid (poly-A), or poly thymine (poly-T) in appropriate ratios (as specified in Table 28) to form suspensions. Supernatant was separated from precipitate (ppt) by centrifugation of the complexed material suspensions. The supernatant solution was analyzed for non-complexed hGH by reverse phase liquid chromatography (RPLC).

T1 sequence (P01241 27-217): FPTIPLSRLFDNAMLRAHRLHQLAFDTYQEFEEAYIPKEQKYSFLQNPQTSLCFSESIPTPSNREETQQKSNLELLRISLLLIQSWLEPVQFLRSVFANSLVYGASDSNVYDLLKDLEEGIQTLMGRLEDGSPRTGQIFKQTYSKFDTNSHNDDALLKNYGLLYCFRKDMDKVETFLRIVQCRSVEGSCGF

| Substance | Observation (concentration ratio 1:2) | Supernatant Analysis (% of hGH) (concentration ratio 1:2) | Observation (concentration ratio 1:10) | Supernatant Analysis (% of hGH) (concentration ratio 1:10) |
| --- | --- | --- | --- | --- |
| Hyaluronic Acid | No ppt | >90 % of hGH |  |  |
| Poly-Lysine |  |  | Cloudy ppt | 9.5 % of hGH |
